The source of these data is PubChem BioAssay (NCI).

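A five-concentration, 48-hour dose response in 96-well plates underlies each endpoint, interpolated linearly between surrounding concentrations. Here, GI50 denotes the concentration required for 50% inhibition of growth. Definition used: TGI = concentration required for complete inhibition of growth.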

Some test systems named below: UACC-62 melanoma; SNB-75 CNS; SF-539 CNS; SNB-19 CNS; MDA-MB-435; HOP-62 NSCLC; M14 melanoma; A498 renal; MALME-3M melanoma; MOLT-4 leukemia.
Holding throughout (assay): inhibition of tumour cell growth, NCI panel, 48 h

Regarding `O=C1OC(c2ccc(Cl)cc2)=N/C1=C\c1ccccc1`, the TGI in the assay with UACC-62 melanoma, with SNB-75 CNS, in the assay with SF-539 CNS, with SNB-19 CNS, in the assay with MDA-MB-435 and in the assay on HOP-62 NSCLC was over 100 µM in each case. In the assay with M14 melanoma, this molecule yielded a TGI of over 100 µM.

Take `CCN(CCO)CCCC(C)Nc1ccnc2cc(Cl)ccc12` (centres undefined): the GI50 in the assay on A498 renal was over 100 µM; with UACC-62 melanoma, over 100 µM; in the assay on SNB-75 CNS, over 100 µM; in the assay on SF-539 CNS it was 8.63 µM; in the assay on MALME-3M melanoma it was over 100 µM; in the assay with SNB-19 CNS it was over 100 µM. Besides, the GI50 in the assay with MDA-MB-435, in the assay with HOP-62 NSCLC and in the assay with M14 melanoma was over 100 µM each time. For the same molecule, the TGI with A498 renal, in the assay on UACC-62 melanoma, with SNB-75 CNS, in the assay with SF-539 CNS, with MALME-3M melanoma and in the assay on SNB-19 CNS was over 100 µM each time. Besides, the TGI with MDA-MB-435, in the assay with HOP-62 NSCLC and in the assay on M14 melanoma was over 100 µM in each case.

Take `O=C(c1ccccc1)C1OC1C(=O)c1ccccc1` (centres undefined): the GI50 with A498 renal was 19.7 µM; in the assay on UACC-62 melanoma, 2.91 µM; with SF-539 CNS it was 3.77 µM; with MALME-3M melanoma it was 3.24 µM; with SNB-19 CNS, 14.1 µM; in the assay with MDA-MB-435, 2.86 µM. The GI50 with M14 melanoma is 2.78 µM. In addition, the TGI with A498 renal is over 100 µM; in the assay on UACC-62 melanoma it was 15.9 µM; in the assay with SF-539 CNS, 12.6 µM; in the assay on MALME-3M melanoma, 66 µM; with SNB-19 CNS it was over 100 µM; in the assay with MDA-MB-435, over 100 µM. In the assay on M14 melanoma, this molecule returned a TGI of 11.9 µM.

Take `COc1ccc(C2=NN(C(C)=O)C(c3ccc(Oc4ccnc5cc(Cl)ccc45)c(OC)c3)C2)cc1` (centres undefined): the GI50 in the assay on MOLT-4 leukemia is over 100000 nM; in the assay on A498 renal it was 15.2 µM; with UACC-62 melanoma it was 5.35 µM; in the assay with SNB-75 CNS it was 1.66 µM; in the assay with SNB-19 CNS, 26.8 µM; in the assay on MDA-MB-435, over 100 µM. Besides, the figures for the GI50 in the assay with HOP-62 NSCLC and in the assay with M14 melanoma were 3.37 µM and 93 µM, respectively. In addition, the TGI is over 100 µM in the assay with MOLT-4 leukemia; 92.2 µM with A498 renal; over 100 µM with UACC-62 melanoma; 6.16 µM in the assay with SNB-75 CNS; over 100 µM in the assay with SNB-19 CNS; over 100 µM in the assay on MDA-MB-435. Besides, the TGI is 13.1 µM with HOP-62 NSCLC and over 100 µM in the assay on M14 melanoma.

As for `OCCN(CCO)c1nc(N2CCCCC2)c2nc(N(CCO)CCO)nc(N3CCCCC3)c2n1`, the TGI was 56.5 µM with MOLT-4 leukemia; 46 µM with MALME-3M melanoma; over 100 µM with MDA-MB-435; over 100 µM in the assay with HOP-62 NSCLC; over 100 µM in the assay with M14 melanoma.

For the molecule `CC[O-].CC[O-].O=C([CH-]C(=O)c1ccccc1)CCCCCCC(=O)[CH-]C(=O)c1ccccc1.[Ti+4]`, the GI50 with MOLT-4 leukemia was over 100000 nM; in the assay on A498 renal, over 100 µM; in the assay with UACC-62 melanoma, over 100 µM; with SNB-75 CNS, over 100 µM; in the assay with SF-539 CNS it was over 100 µM; with MALME-3M melanoma, over 100 µM. For the same molecule, the GI50 in the assay on SNB-19 CNS, in the assay with HOP-62 NSCLC and with M14 melanoma was over 100 µM in each case. The TGI with MOLT-4 leukemia, with A498 renal, with UACC-62 melanoma, in the assay on SNB-75 CNS, with SF-539 CNS and in the assay on MALME-3M melanoma was over 100 µM throughout. Further, the TGI in the assay with SNB-19 CNS, in the assay with HOP-62 NSCLC and in the assay with M14 melanoma was over 100 µM each time.

As to `COc1cc2c(cc1O)c(=O)n(CCN(C)C)c1c3cc4c(cc3ncc21)OCO4`, the GI50 was under 10 nM with MOLT-4 leukemia; 0.0234 µM in the assay with A498 renal; under 0.0152 µM in the assay with SNB-75 CNS; under 0.01 µM with SF-539 CNS; 0.0291 µM in the assay on MALME-3M melanoma; under 0.01 µM in the assay with SNB-19 CNS. The GI50 with MDA-MB-435 was 0.0195 µM; in the assay on HOP-62 NSCLC it was under 0.01 µM; with M14 melanoma, under 0.01 µM. In addition, the TGI with MOLT-4 leukemia is 0.0271 µM; in the assay with A498 renal, 0.0882 µM; in the assay on SNB-75 CNS, 0.315 µM; with SF-539 CNS, 0.0223 µM; in the assay with MALME-3M melanoma it was 0.192 µM; in the assay with SNB-19 CNS, 5.3 µM. Moreover, the TGI with MDA-MB-435 was found to be 0.258 µM; with HOP-62 NSCLC it was 0.044 µM; in the assay with M14 melanoma it was 0.0535 µM.

As to `NNc1nc2ccccc2o1`, the TGI in the assay on MOLT-4 leukemia, in the assay on A498 renal, in the assay with UACC-62 melanoma, in the assay on SNB-75 CNS, in the assay with SF-539 CNS and in the assay on MALME-3M melanoma was over 100 µM in each case. Further, the TGI in the assay with SNB-19 CNS, in the assay on MDA-MB-435 and with M14 melanoma was over 100 µM in each case.

Turning to `O=C1NC2(CCCC2)C2CCCCC12O` (centres undefined), the TGI in the assay with MOLT-4 leukemia, in the assay with A498 renal, in the assay on UACC-62 melanoma, in the assay on SNB-75 CNS, with SF-539 CNS and with MALME-3M melanoma was over 100 µM each time. Besides, the TGI with SNB-19 CNS, with HOP-62 NSCLC and with M14 melanoma was over 100 µM throughout.

As to `CCN(CC)CCCNc1n[n+]([O-])c2ccccc2[n+]1[O-]`, the TGI in the assay with MOLT-4 leukemia amounted to 11.4 µM; with A498 renal, 16.6 µM; in the assay on UACC-62 melanoma it was 26 µM; in the assay on SNB-75 CNS, 77.1 µM; in the assay on SF-539 CNS it was 68.9 µM; in the assay on MALME-3M melanoma it was 25.3 µM. The TGI with SNB-19 CNS, with MDA-MB-435 and in the assay on M14 melanoma was over 100 µM throughout.

For the molecule `O=C(CCCC(=O)N/N=C/c1cc(Cl)ccc1O)N/N=C\c1cc(Cl)ccc1O`, the GI50 in the assay with MOLT-4 leukemia was 2520 nM; with A498 renal it was 55 µM; in the assay with SNB-75 CNS it was 8.16 µM; in the assay with SF-539 CNS, 2.66 µM; with SNB-19 CNS it was 4.42 µM; in the assay with MDA-MB-435 it was 6.87 µM. For the same molecule, the GI50 is 5.05 µM with HOP-62 NSCLC and 3.21 µM with M14 melanoma. Besides, the TGI in the assay on MOLT-4 leukemia was 23.2 µM; in the assay with A498 renal, over 100 µM; with SNB-75 CNS it was over 100 µM; in the assay on SF-539 CNS it was 33.5 µM; in the assay on SNB-19 CNS it was over 100 µM; in the assay on MDA-MB-435, over 100 µM. The TGI in the assay on HOP-62 NSCLC and in the assay with M14 melanoma was over 100 µM in each case.
